In the test the test system is P. salmonis. Put plainly: MIC by broth micro dilution in Austral-SRS broth. The note with it: Piscirickettsia salmonis. It counts as cell-based.
Setting [1] is: P. salmonis ATCC VR-1361 (type strain), 18° C., read-out: MIC value.
Setting [2] is: P. salmonis isolates (austral-005), 18° C., n=10, read-out: MIC values.

In brackets after ≈: the same amount, converted by molar mass. Where two headings read alike, the source gives them in different places.

As usually defined, the MIC is the smallest concentration in the dilution series that meets the test's criterion for growth inhibition. `CS(=O)(=O)c1ccc([C@@H](O)[C@@H](CF)NC(=O)C(Cl)Cl)cc1` [florfenicol]: 0.5 µg/mL (≈ 1.4 µM) was the least that counted as inhibitory (MIC). Under setting [1], the MIC lay within 0.25 to 0.5 µg/mL (≈ 0.698 to 1.4 µM). For the same compound, the minimum inhibitory concentration (MIC) under setting [2] was 0.25 to 0.5 µg/mL (≈ 0.698 to 1.4 µM).
Compound `CN(C)[C@@H]1C(O)=C(C(N)=O)C(=O)[C@@]2(O)C(O)=C3C(=O)c4c(O)cccc4[C@@](C)(O)[C@H]3[C@H](O)[C@@H]12` [oxytetracycline] registered an MIC of 0.124 µg/mL (≈ 0.269 µM). In addition, the MIC under setting [1] lay within 0.25 to 0.5 µg/mL (≈ 0.543 to 1.09 µM). Also, the MIC under setting [2] was in the range of 0.125 to 2.5 µg/mL (≈ 0.271 to 5.43 µM).

The record behind these values is US20140147467A1, “Novel broth medium and blood free solid media” (priority 2012, published 2014).
